Data as given in patent US4743614A, “Amino acid derivatives and processes for preparation thereof” (Fujisawa Pharmaceutical Co., Ltd., priority 1985, dated 1988).

Columns and labels:
[1] = tested on: colony forming abilities of bone marrow cells (CFU-c); test: Restorative effect on suppressed colony forming abilities of bone marrow cells in immunodeficient hosts (mitomycin C-treated mice); format: in vivo, BDF1 mice; settings: mitomycin C 1 mg/kg for 2 days, day 9, n = 7-9, **P < 0.01
Experimental: Restorative effect on suppressed colony forming abilities of bone marrow cells in immunodeficient hosts: BDF1 mice (female, 8 weeks aged) were obtained from Shizuoka Agricultural Cooperative Association for Laboratory Animal, Hamamatsu, Japan. The mice were intraperitoneally injected with mitomycin C (1 mg/kg) every day for 2 days and FR-900490 was also administered to mice intraperitoneally every day for 5 days. At 9th day after first administration of mitomycin C, mice were sacrificed and the colony forming abilities of bone marrow cells (CFU-c) were measured. The schedule of the above test is shown below. [drawing 6] Femoral marrow was harvested from mice by flushing the bone cavity with α-Minimum Essential Medium (α-MEM) supplemented with penicillin G (100 units/ml), streptomycin (100 μg/ml) and 5% fetal bovine serum (FBS). The bone marrow cells were pelleted by centrifugation (500×g, 10 minutes) and resuspended in enriched α-MEM. Mononuclear cells were counted in a hemocytometer and the cells were diluted to 1 ×10^5 cells/ml. Then, 1 ml of bone marrow cells, 1 ml of FBS, 2 ml of 2.2% methyl cellulose in α-MEM and 1 ml of L-929 cell conditioned medium were added to a sterilized tube and mixed by use of automatic mixer. One ml of mixture was plated in 35 mm plastic petri dish and incubated for 7 days in a fully humidified atmosphere of 5% CO2 in air. Triplicate plates were prepared for each experiment. Colonies composed of 50 or more cells were scored on an inverted microscope.

B-16 melanoma = test: Inhibitory activity for tumor metastasis; format: in vivo, BDF1 mice; settings: 14th day after B-16 melanoma injection, n = 10, **P < 0.01
Experimental: Inhibitory activity for tumor metastasis
B-16 Melanoma cells were grown in a Roswel park memorial Institute (RPMI)-1640 medium supplemented with penicillin G (100 units/ml), streptomycin (100 μg/ml) and 10% FBS to subsconfiluency, and the monolayers were rinsed with an aqueous solution of trypsin. Hanks' balanced salt (HBS) solution (Ca-Mg-free) containing the antibiotics described above was added to the monolayers and the monolayer was dislodged by gentle pipetting, and the cells were washed with HBS solution containing the antibiotics described above by centrifugation. The cells were resuspended in HBS solution containing the antibiotics described above and kept at cold temperature. BDF1 mice (female, 8 weeks aged) were injected intravenously with 2×10^5 cells of B-16 melanoma in 0.2 ml of HBS solution containing the antibiotics described above. FR-900490 was intraperitoneally administered once a day at one day and two days before and at one day and four days after the injection of B-16 melanoma. At 14th day after injection of B-16 melanoma, the mice were killed, and the lungs were removed, rinsed in distilled water containing heparin and the number of tumor foci was determined by counting the surface colonies under a dissecting microscope.
The schedule of the above test is shown. [drawing 7]

[2] = tested on: direct plaque forming cells (PFC-SRBC); test: Restorative effect on suppressed antibody forming abilities in immunodeficient hosts; format: in vivo, BDF1 mice
Experimental: Restorative Effect on Suppressed Antibody Forming Abilities in Immunodeficient Hosts
BDF1 mice (female, 8 weeks aged) were injected intraperitoneally with Mitomycin C (1 mg/kg) from four days before immunization with 5×10^8 Sheep Red Blood Cells (SRBC), every day for three days. Test samples also were administered to mice intraperitoneally from four days before immunization, every day for five days. At day 9, mice were sacrificed and the number of direct plaque forming cells per spleen (PFC-SRBC/spleen) was measured by using Cunningham modification method.
The schedule of the above test is shown. [drawing 8]

Solubility = format: physicochemical

Solubility (Solubility; Ethyl acetate): Insoluble | Solubility (Solubility; Methanol): Sparingly soluble | Solubility (Solubility; Water): Soluble | Solubility (Solubility; acetone): Insoluble | Solubility (Solubility; chloroform): Insoluble | Solubility (Solubility; ethanol): Sparingly soluble
Compound: C[C@@H](N[C@@H](Cc1c[nH]cn1)C(=O)O)[C@H](NC(=O)[C@@H](N)CC(N)=O)C(=O)O [FR-900490, (2S,3R)-2-[[(2S)-2-amino-3-carbamoylpropionyl]amino]-3-[[(1S)-1-carboxy-2-(4-imidazolyl)ethyl]amino]butyric acid]
CFU-c (mean ± SE) ([1]; 1 mg/kg i.p. every day for 5 days): 59.3 ± 2.86 | CFU-c (mean ± SE) ([1]; 10 mg/kg i.p. every day for 5 days): 70.4 ± 6.9 | CFU-c (mean ± SE) ([1]; 100 mg/kg i.p. every day for 5 days): 57.2 ± 2.51 | No. of colonies on the lung mean ± SE (B-16 melanoma; 1 mg/kg i.p.): 39.7 ± 6.4 | No. of colonies on the lung mean ± SE (B-16 melanoma; 10 mg/kg i.p.): 23.4 ± 3.3 | No. of colonies on the lung mean ± SE (B-16 melanoma; 100 mg/kg i.p.): 77.9 ± 27.4 | PFC-SRBC/spleen (average number of 5 mice/group) ([2]; 3 mg/kg i.p., mitomycin C-treated): 14.96 × 10^4 PFC-SRBC/spleen | PFC-SRBC/spleen (average number of 5 mice/group) ([2]; 10 mg/kg i.p., mitomycin C-treated): 17.49 × 10^4 PFC-SRBC/spleen | PFC-SRBC/spleen (average number of 5 mice/group) ([2]; 30 mg/kg i.p., mitomycin C-treated): 16.30 × 10^4 PFC-SRBC/spleen | PFC-SRBC/spleen (average number of 5 mice/group) ([2]; 100 mg/kg i.p., animals not administered mitomycin C): 16.83 × 10^4 PFC-SRBC/spleen | PFC-SRBC/spleen (average number of 5 mice/group) ([2]; 100 mg/kg i.p., mitomycin C-treated): 21.12 × 10^4 PFC-SRBC/spleen
